Data on one compound can be found in patent US11918550B2, “Sensitization of cancer cells to differentiation therapy with mitochondrial uncoupler niclosamide ethanolamine” (The Board of Trustees of the Leland Stanford Junior …, priority 2020, dated 2024).

Holding throughout (assay type): cell-based
For test [1], the system named is HIF2α. Description: Western blot of nuclear HIF2α under normoxia or hypoxia. As to conditions: SK-N-BE(2), 2 or 4 μM NEN, 3.5 mM α-KG. The method, then: Protein extraction and immunoblot. […] Cell lysate was centrifuged at 3000 rpm for 3 min at 4° C. The supernatant containing cytosolic proteins was transferred to a different tube. […] Then the solution was sonicated at 4° C. for 6 cycles (1 cycle=30 s sonication and 30 s cooldown with “High” energy intensity) using a Bioruptor® Plus sonication (Diagenode, UCD-300). After sonication, the solution was centrifuged at 15,000 rpm for 10 minutes. The supernatant was kept as nuclear extraction. […] After blocking in 5% non-fat milk for 30 minutes at room temperature (RT), the primary antibody was added for incubation overnight at 4° C.
A general note: Immunoblotting shows a protein as a band on a membrane.

The subject of test [2] is NB16 cells. Description: U-13C-glutamine isotope tracing (LC/MS). The method, then:
(§1) Metabolic analysis. For the metabolomics and isotope tracing analysis in vitro, cells were washed with cold PBS, lysed in 80% Ultra LC-MS acetonitrile on ice for 15 minutes, centrifuged at 20,000 g for 10 minutes at 4° C., and supernatant was subjected to mass spectrometry analysis. For the metabolomics analysis in vivo, 10-20 mg tissue were cut off on ice, rinsed if necessary to remove blood, and place in a 2 ml round-bottom cryovial. The tissues were homogenized by 3 times 10 s on/off bursts homogenization in 1 ml 80% methanol on dry ice. Transfer the homogenate to an Eppendorf tube and keep on liquid nitrogen while processing the remaining samples. Incubated all the samples in −80° C. for 30 minutes. After incubation, vortexed the samples for 5 seconds. Then centrifuged the samples at 20,000 g for 10 minutes at 4° C., and supernatant was subjected to mass spectrometry analysis. Resuspend the remaining cellular pellet in 100 ul protein lysis buffer and determine the protein concentration. Then calculate the total protein content per sample.
(§2) Liquid chromatography was performed using an Agilent 1290 Infinity LC system (Agilent, Santa Clara, US) coupled to a Q-TOF 6545 mass spectrometer (Agilent, Santa Clara, US). A hydrophilic interaction chromatography method (HILIC) with a BEH amide column (100×2.1 mm i.d., 1.7 μm; Waters) was used for compound separation at 35° C. with a flow rate of 0.3 ml/minutes. The mobile phase A consisted of 25 mM ammonium acetate and 25 mM ammonium hydroxide in water and mobile phase B was acetonitrile. The gradient elution was 0-1 minute, 85% B; 1-12 minutes, 85% B→65% B; 12-12.2 minutes, 65% B→40% B; 12.2-15 minutes, 40% B. After the gradient, the column was re-equilibrated at 85% B for 5 minutes. The overall runtime was 20 minutes, and the injection volume was 5 μL. Agilent Q-TOF was operated in negative mode and the relevant parameters were as listed: ion spray voltage, 3500 V; nozzle voltage, 1000 V; fragmentor voltage, 125 V; drying gas flow, 11 L/minutes; capillary temperature, 325° C., drying gas temperature, 350° C.; and nebulizer pressure, 40 psi. A full scan range was set at 50 to 1600 (m/z). The reference mass was 119.0363 and 980.0164. The acquisition rate was 2 spectra/s. Targeted analysis, isotopologues extraction and natural isotope abundance correction were performed by Agilent Profinder B.10.00 (Agilent Technologies).
(§3) Stable isotope tracing analysis. […] Then the culture medium was changed to DMEM/F-12, no glutamine (Gibco, 21331020) with 4 mM U-^13C5-glutamine (Cambridge Isotope Laboratories, CLM-1822-H) and 10% dialyzed FBS (Gibco, 26400044) under same treatment condition as above for 2 h. […] Then changed the medium to DMEM/F-12, no glutamine (Gibco, 21331020) with 4 mM 1-^13C-glutamine (Cambridge Isotope Laboratories, CLM-CLM-3612-PK) and 10% dialyzed FBS (Gibco, 26400044) for 2 h with same treatment under normoxia or hypoxia for 2 h.

Test [3] deals with SK-N-BE(2) cells. Description: U-13C-glutamine isotope tracing (LC/MS). The method, then:
as §1, §2, §3

Test [4] relates to SK-N-BE(2) cells. Description: Western blot of RA signaling proteins. As to conditions: 24 hrs. The method, then:
Protein extraction and immunoblot. Cells were washed with ice-cold PBS buffer (Invitrogen, 20012050) and lysed with harvest buffer (10 mM Hepes pH 7.9, 50 mM NaCl, 500 mM sucrose, 0.1 mM EDTA and 0.5% Trition X-100) supplemented with 1% Halt inhibitors (Thermo Scientific™, 78443) for 10 minutes. Cell lysate was centrifuged at 3000 rpm for 3 min at 4° C. The supernatant containing cytosolic proteins was transferred to a different tube. The pellet containing nuclear proteins was dissolved with nuclear lysis buffer (10 mM Hepes pH 7.9, 0.5M NaCl, 0.1 mM EDTA, 0.1 mM EGTA and 0.1% NP40) supplemented with 1% Halt inhibitors (Thermo Scientific™, 78443) for 5 minutes at 4° C. Then the solution was sonicated at 4° C. for 6 cycles (1 cycle=30 s sonication and 30 s cooldown with “High” energy intensity) using a Bioruptor® Plus sonication (Diagenode, UCD-300). After sonication, the solution was centrifuged at 15,000 rpm for 10 minutes. The supernatant was kept as nuclear extraction. Protein concentration was determined by BCA assay (Thermo Scientific, 23227). 5 μg nuclear proteins or 7.5 μg cytosolic proteins were boiled in loading buffer with reducing reagents (Invitrogen, NuPAGE™ LDS Sample Buffer (4X), NP0007), then separated with SDS-PAGE (Nupage™ 4-12% Bis-Tris Protein Gels, 1.0 mm, Invitrogen™, NP0322BOX). Protein was transferred onto a nitrocellulose membrane (Thermo Scientific™, 88018). After blocking in 5% non-fat milk for 30 minutes at room temperature (RT), the primary antibody was added for incubation overnight at 4° C. After washing with TBST (CST, #9997, 1:10 diluted by deionized water) for 3 times, HRP-conjugated secondary antibodies were applied. Signals were detected with an ECL kit (Thermo Scientific™, 34577) by using BioRad Universal Hood II.

The test system of test [5] is RA-resistant neuroblastoma cells. Description: Cell proliferation (cell counting), NEN with RA. As to conditions: NEN combined with RA, 3 days. The method, then: Cell proliferation and clonogenic assay. 2×10^4 cells were seeded in 12 well-plate and allowed to attached overnight. […] After treatment, cells were counted using hemocytometer.
The test system of test [6] is NB16 cells. Description: Relative intracellular metabolite levels by LC/MS. The method, then:
as §1, §2

Setting [7] is: NB16, 1 μM NEN 3 h pretreatment then 2 h label.
Setting [8] is: 1 μM NEN 3 h pretreatment then 2 h label.

As to `O=C(Nc1ccc([N+](=O)[O-])cc1Cl)c1cc(Cl)ccc1O` [NEN, 5-chloro-N-(2-chloro-4-nitrophenyl)-2-hydroxybenzamide compound with 2-aminoethanol (1:1)], the “inhibition of the accumulation of HIF2a protein” value in test [1] is “inhibited”. Moreover, in test [2] (setting [7]), the “m+4 aspartate” value is recorded as “increased”; the “m+4 succinate” value was “increased”; the “m+5 2-HG labelling” value is reported as “no significant reduction”; the “m+5 and m+3 labeling of α-KG from glutamine” value is reported as “increased”. The “reductive carboxylation flux (labelling fraction of m+5 citrate, m+3 fumarate, m+3 malate)” value in test [2] (NB16, U-13C-glutamine, 1 μM NEN, normoxia) is reported as “significantly inhibited”. Besides, in test [3] (setting [8]), the “labelling abundance of m+2 (2nd cycle) and m+½ (3rd cycle) aspartate” value is on record as “significantly increased”; the “labelling abundance of m+2 (2nd cycle) and m+½ (3rd cycle) succinate” value was “significantly increased”; the “labelling percentage of m+3 (2nd cycle) α-KG” value was “significantly increased”; the “labelling percentage of m+½ (3rd cycle) α-KG” value is “significantly increased”. In test [3] (setting [8]), the “m+5 labelling abundance of 2-HG” value is given as “significantly decreased” and the “m+5 α-KG labelling from U-13C-glutamine” value was “no significant increase”. Further, in test [3] (U-13C-glutamine, 1 μM NEN, normoxia), the “reductive carboxylation flux (labelling fraction of m+5 citrate, m+3 fumarate, m+3 malate)” value was “significantly inhibited”. For the same compound, in test [4] (1 μM NEN alone), the “protein level of RARγ” value was “increased”. Also, in test [4] (1 μM NEN combined with 1 μM RA), the “protein level of RARγ” value is given as “further upregulated”. Also, the “RA-dependent proliferation arrest effect” value in test [5] is reported as “enhanced”. Moreover, in test [6] (1 μM NEN 2 h or 5 h vs DMSO), the aspartate level result is “accumulated”, the citrate level entry is “not affected”, the fumarate level result is on record as “no significant increase” and the “intracellular α-KG levels” value is “increased significantly”. Moreover, in test [6] (1 μM NEN 2 h or 5 h vs DMSO), the malate level result is listed as “no significant increase” and the succinate level result is “accumulated”. Moreover, in test [6] (1 μM NEN 5 h vs DMSO), the intracellular glutamate level result is “significantly reduced” and the intracellular glutamine level result is “significantly reduced”.
